Results reported in patent US12037324B2, “Biarylmethyl heterocycles” (Université de Montréal, priority 2016, dated 2024).

Tests used:
[1] = target: T1, AGTR1 (Homo sapiens, UniProt P30556); experiment: DiscoveRx β-arrestin2 recruitment assay (enzyme complementation, Pathunter CHO-K1 AGTR1 β-arrestin cell line); assay type: cell-based; details: DiscoveRx β-arrestin2 recruitment; for DiscoveRx β-arrestin2 Ymax (%): maximal response
T1 construct: host or cells: Pathunter CHO-K1 AGTR1 β-arrestin cell line (CHO-K1)
T1 sequence (P30556 1-359): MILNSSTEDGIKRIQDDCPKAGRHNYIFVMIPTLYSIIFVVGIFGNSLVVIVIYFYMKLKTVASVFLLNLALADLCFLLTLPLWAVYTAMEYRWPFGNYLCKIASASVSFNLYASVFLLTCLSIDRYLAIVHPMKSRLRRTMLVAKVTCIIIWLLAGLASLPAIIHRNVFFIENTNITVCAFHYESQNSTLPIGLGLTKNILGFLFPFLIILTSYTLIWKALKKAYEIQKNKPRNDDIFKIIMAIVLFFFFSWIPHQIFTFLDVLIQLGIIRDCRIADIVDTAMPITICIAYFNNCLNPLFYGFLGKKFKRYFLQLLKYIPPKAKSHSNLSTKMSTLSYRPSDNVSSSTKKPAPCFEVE
Method in brief: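 CHO-K1 cells expressing AGTR1 with β-arrestin2 enzyme-complementation reporter, plated 14-16 h ahead in 1% serum medium, then exposed to compounds for 90 min at 37° C. Chemiluminescence read after 1 h detection. EC50 (agonist) or IC50 (antagonist) from 4-parameter logistic fit; activity as percentage of All maximal effect.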

[2] = target: T2, hAT1R (Homo sapiens, UniProt P30556); experiment: cell-based; details: section of the 42nd table ending at r951, example numbering restarts after the DiscoveRx section; read-out: β-arrestin2 EC50
T2 sequence (P30556 1-359): T1 sequence (P30556 1-359)

[3] = target: T2, hAT1R; experiment: BRET Gq biosensor assay, agonist response, HEK293 cells; assay type: cell-based; details: section of the 42nd table directly before the BRET P63 section
Method in brief: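 HEK293 cells co-transfected with signal-peptide-optimized hAT1R plus Gαq-Rluc, Gβ1 and GFP-Gγ1, assayed 48 h later in Tyrode's buffer pH 7.4. Coelenterazine (2 μM final) added, then compound; BRET2 (515/410 nm) read after 5 min at room temperature. EC50 by 4-parameter fit, normalized to unstimulated (0%) and maximal AngII (100%).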

[4] = target: T2, hAT1R; experiment: cell-based; details: agonist mode; for EC50: read-out: BRET P63 EC50
[5] = target: T2, hAT1R; experiment: BRET β-arrestin2 biosensor assay, higher receptor expression (hAT1R 5 ng/well), HEK293 cells; assay type: cell-based; details: for EC50: High AT1R Expression

Row | SMILES | EC50 [1] | DiscoveRx β-arrestin2 Ymax (%) [1] | EC50 [2] | EC50 [3] | BRET P63 Ymax [4] | EC50 [4] | BRET β-Arrestin2 High AT1R Expression Ymax (%) [5] | EC50 [5]
1 | CCCCC(=O)N(Cc1ccc(-c2cc(-c3cc(C)ccn3)ccc2-c2nn[nH]n2)cc1)C1(C(=O)O)CCCCC1 [Example 295] | 47.5 nM | 60.3% | 39 nM | 217 nM | 12.9% | 120 nM | 92.5% | 14 nM
2 | CCOc1nc2cccc(C(=O)O)c2n1Cc1ccc(-c2cc(-c3ccccc3)ccc2-c2noc(=O)[nH]2)cc1 [Example 311, 2-ethoxy-1-((6′-(5-oxo-4,5-dihydro-1,2,4-oxadiazol-3-yl)-[1,1′:3′,1″-terphenyl]-4-yl)methyl)-1H-benzo[d]imidazole-7-carboxylic acid] | 3.9 nM | 77.6% | 4.2 nM | 18.1 nM | 13.2% | 3.6 nM | 92.0% | 1.5 nM
3 | CCOc1nc2cccc(C(=O)O)c2n1Cc1ccc(-c2cc(-c3ccccc3)ccc2-c2nn[nH]n2)cc1 [Example 312, 1-((6′-(2H-tetrazol-5-yl)-[1,1′:3′,1″-terphenyl]-4-yl)methyl)-2-ethoxy-1H-benzo[d]imidazole-7-carboxylic acid] | 22.5 nM | 79.9% | 5.8 nM | 20.7 nM | 9.4% | 17.2 nM | 91.8% | 2.6 nM
4 | CCOc1nc2cccc(C(=O)O)c2n1Cc1ccc(-c2cc(-c3cccc(C)c3)ccc2C(=O)O)cc1 [Example 313, 1-((6′-carboxy-3″-methyl-[1,1′:3′,1″-terphenyl]-4-yl)methyl)-2-ethoxy-1H-benzo[d]imidazole-7-carboxylic acid] | 28.1 nM | 46.1% | 21.5 nM | 82.1 nM | 6.3% | 46.7 nM | 92.9% | 7.7 nM
5 | CCOc1nc2cccc(C(=O)O)c2n1Cc1ccc(-c2cc(-c3ccccc3)ccc2C(=O)O)cc1 [Example 314, 1-((6′-carboxy-[1,1′:3′,1″-terphenyl]-4-yl)methyl)-2-ethoxy-1H-benzo[d]imidazole-7-carboxylic acid] | 3.5 nM | 66.8% | 36.6 nM | 129 nM | 12.8% | 67.8 nM | 90.3% | 5.8 nM
6 | CCOc1nc2cccc(C(=O)O)c2n1Cc1ccc(-c2cc(-c3c[nH]c4ccccc34)ccc2-c2noc(=O)[nH]2)cc1 [Example 322] | 39.2 nM | 33.7% | 9.7 nM | 93.3 nM | 5.1% | 53.7 nM | 80.9% | 8.4 nM
7 | CCOc1nc2cccc(C(=O)O)c2n1Cc1ccc(-c2cc(Oc3cnccc3C)ccc2-c2nn[nH]n2)cc1 [Example 337] | 40.6 nM | 85.6% | 631 nM | 55.8 nM | – | > 10000 nM | – | –
8 | CCOc1nc2cccc(C(=O)O)c2n1Cc1ccc(-c2cc(-n3ccc(C(F)(F)F)n3)ccc2-c2nn[nH]n2)cc1 [Example 338] | 17.8 nM | 68.9% | 16.3 nM | 30.8 nM | – | > 10000 nM | – | –
9 | CCOc1nc2cccc(C(=O)O)c2n1Cc1ccc(-c2cc(-n3cnc4ccccc43)ccc2-c2nn[nH]n2)cc1 [Example 339] | 10.6 nM | 58.0% | 12.8 nM | 52.1 nM | – | > 10000 nM | – | –
10 | CCCCc1ncc(C(=O)NCc2cnn(C)c2)n1Cc1ccc(-c2cc(-c3ccccc3)ccc2-c2nn[nH]n2)cc1 [Example 346] | 13 nM | 44.5% | 11.1 nM | 67.1 nM | 6.0% | 19.3 nM | 92.1% | 7.1 nM
11 | CCCCc1nc(Cl)c(C(=O)O)n1Cc1ccc(-c2cc(-c3ccccc3)ccc2-c2nn[nH]n2)cc1 [Example 384, 1-((6′-(2H-tetrazol-5-yl)-[1,1′:3′,1″-terphenyl]-4-yl)methyl)-2-butyl-4-chloro-1H-imidazole-5-carboxylic acid] | 8 nM | 49.3% | 10.8 nM | 39.1 nM | – | > 10000 nM | 83.8% | 6.9 nM
12 | CCCCc1nc(Cl)c(C(=O)O)n1Cc1ccc(-c2cc(-c3cn(C(C)C)nc3C(F)(F)F)ccc2-c2nn[nH]n2)cc1 [Example 388] | 44.7 nM | 71.7% | 26.7 nM | 810 nM | 30.4% | 39.8 nM | 96.2% | 4.6 nM
13 | CCCCc1nc(Cl)c(C(=O)O)n1Cc1ccc(-c2cc(-c3ccc(C(=O)N(C)C)cc3)ccc2-c2nn[nH]n2)cc1 [Example 390] | 11.8 nM | 53.5% | 97 nM | 23.7 nM | 11.9% | 127 nM | 95.3% | 24.4 nM
14 | CCCCc1nc(Cl)c(C(=O)O)n1Cc1ccc(-c2cc(N3CCC[C@H](C)C3)ccc2-c2nn[nH]n2)cc1 [Example 418, (S)-2-butyl-4-chloro-1-((5′-(3-methylpiperidin-1-yl)-2′-(2H-tetrazol-5-yl)-[1,1′-biphenyl]-4-yl)methyl)-1H-imidazole-5-carboxylic acid] | 67.8 nM | 31.2% | 154 nM | 478 nM | – | > 10000 nM | – | –
15 | CCCCc1nc(Cl)c(C(=O)O)n1Cc1ccc(-c2cc(N3CCC[C@@H](C)C3)ccc2-c2nn[nH]n2)cc1 [Example 419, (R)-2-butyl-4-chloro-1-((5′-(3-methylpiperidin-1-yl)-2′-(2H-tetrazol-5-yl)-[1,1′-biphenyl]-4-yl)methyl)-1H-imidazole-5-carboxylic acid] | 121 nM | 33.9% | 85.2 nM | 228 nM | – | > 10000 nM | – | –
16 | CCCc1nc(CC)c(C(=O)O)n1Cc1ccc(-c2cc(-c3ccccc3)ccc2-c2nn[nH]n2)c(C)c1 [Example 425] | 27.3 nM | 54.2% | 47.4 nM | 105 nM | – | > 10000 nM | – | –
17 | CCCc1nc(CC)c(C(N)=O)n1Cc1ccc(-c2cc(-c3ccccc3)ccc2-c2nn[nH]n2)c(C)c1 [Example 426] | 34.2 nM | 52.5% | 49.6 nM | 86 nM | – | > 10000 nM | – | –
18 | CCCCc1nc(Cl)c(C(=O)O)n1Cc1ccc(-c2cc(Oc3ccccn3)ccc2-c2nn[nH]n2)cc1 [Example 427, 2-Butyl-4-chloro-1-((5′-(pyridin-2-yloxy)-2′-(2H-tetrazol-5-yl)-[1,1′-biphenyl]-4-yl)methyl)-1H-imidazole-5-carboxylic acid] | 89.9 nM | 19.6% | > 10000 nM | 575 nM | – | > 10000 nM | – | –
